Reference: PMC2995738, “In Vitro and In Vivo Anti-Inflammatory Activity of 17-O-Acetylacuminolide through the Inhibition of Cytokines, NF-κB Translocation and IKKβ Activity” (PLoS ONE, 2010)
pEC50: −log10 of the molar value.

Molecular target: T1, IKKβ (Homo sapiens, UniProt O14920)
T1 construct: gene IKBKB; Human, recombinant IKKβ
T1 sequence (O14920 1-756): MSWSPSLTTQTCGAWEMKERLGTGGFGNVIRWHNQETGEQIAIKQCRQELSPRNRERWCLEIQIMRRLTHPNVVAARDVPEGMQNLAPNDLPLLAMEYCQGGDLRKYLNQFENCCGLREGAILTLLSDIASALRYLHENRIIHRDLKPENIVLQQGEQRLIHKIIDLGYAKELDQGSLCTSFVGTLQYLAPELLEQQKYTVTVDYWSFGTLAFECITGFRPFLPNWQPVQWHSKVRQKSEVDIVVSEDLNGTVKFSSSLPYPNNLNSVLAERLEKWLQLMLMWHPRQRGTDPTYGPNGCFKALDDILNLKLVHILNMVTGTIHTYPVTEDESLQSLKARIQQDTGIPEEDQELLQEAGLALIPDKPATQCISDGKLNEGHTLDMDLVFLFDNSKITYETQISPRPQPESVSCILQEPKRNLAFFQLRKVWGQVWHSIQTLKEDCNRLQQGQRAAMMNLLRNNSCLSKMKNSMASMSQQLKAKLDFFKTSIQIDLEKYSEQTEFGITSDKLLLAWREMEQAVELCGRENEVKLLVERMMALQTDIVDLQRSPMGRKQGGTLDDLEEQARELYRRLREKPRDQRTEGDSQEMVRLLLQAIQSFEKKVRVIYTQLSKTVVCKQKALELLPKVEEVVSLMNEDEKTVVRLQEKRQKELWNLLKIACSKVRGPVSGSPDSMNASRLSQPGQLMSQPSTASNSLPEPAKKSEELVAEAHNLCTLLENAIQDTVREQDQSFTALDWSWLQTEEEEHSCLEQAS
Experiment: K-LISA IKKβ inhibitor screening kit (ELISA of GST-IκBα phosphorylation by recombinant IKKβ)
Assay type: biochemical

Structure (SMILES): CC(=O)OC[C@@]12CC[C@H]3C(C)(C)CCC[C@]3(C)[C@H]1C[C@@H](C1=CC(=O)O[C@H]1O)O2 [AA, (12S)-17-acetoxy-8a,12-epoxy-16(R)-hydroxylabd-13(14)Z-en-15,16-olide]
- pEC50: 4.88
